Test results published in ChEMBL document CHEMBL4765339, “Design, synthesis, and biological evaluation of 4-substituted-3,4-dihydrobenzo[h]quinoline-2,5,6(1H)-triones as NQO1-directed antitumor agents” (Eur J Med Chem, 2020).

Columns and labels:
[1] = target: NAD(P)H dehydrogenase [quinone] 1 (Homo sapiens) (UniProt P15559); assay: Substrate activity at recombinant human C-terminal His-tagged NQO1 (1 to 274 residues) expressed in Escherichia coli assessed as enzyme activity by measuring oxidation of NADPH incubated for 5 mins measured per micromol of enzyme every 5 sec for 1 mins by UV-visible spectrophotometry
HepG2 [2] = assay: Cytotoxicity against human HepG2 cells assessed as reduction in cell growth incubated for 48 hrs by MTT assay; format: functional
A549 [3] = assay: Cytotoxicity against human A549 cells assessed as reduction in cell growth incubated for 48 hrs by MTT assay; format: functional
MCF7 = assay: Cytotoxicity against NQO1-rich human MCF7 cells assessed as reduction in cell growth incubated for 48 hrs by MTT assay; format: functional
[4] = Selectivity index, ratio of GI50 for human A549 cells pretreated for 1 hr with NQO1 inhibitor, dicoumarol followed by incubation with compound for 48 hrs to GI50 for human A549 cells measured after 48 hrs by MTT assay; format: functional
[5] = Selectivity index, ratio of GI50 for human HepG2 cells pretreated for 1 hr with ROS scavenger, N-acetyl cysteine followed by incubation with compound for 48 hrs to GI50 for human HepG2 cells measured after 48 hrs by MTT assay; format: functional
[6] = Cytotoxicity against human L02 cells assessed as reduction in cell growth incubated for 48 hrs by MTT assay; format: cell-based
[7] = Selectivity index, ratio of GI50 for human A549 cells pretreated for 1 hr with ROS scavenger, N-acetyl cysteine followed by incubation with compound for 48 hrs to GI50 for human A549 cells measured after 48 hrs by MTT assay; format: functional
HepG2 [8] = assay: Induction of ROS generation in human HepG2 cells at 5 uM by DCFH-DA staining based flow cytometry analysis; format: functional, cell-based; conditions: time 3-5 hrs, TDE = time-dependent effect
HepG2 [9] = assay: Cytotoxicity against human HepG2 cells assessed as reduction in cell growth pretreated for 1 hr with NQO1 inhibitor, dicoumarol followed by incubation with compound for 48 hrs by MTT assay; format: functional
HepG2 [10] = assay: Antitumor activity against human HepG2 cells xenografted in athymic nude mouse assessed as inhibition of tumor growth at 20 mg/kg, iv administered once every 2 days for 19 days by caliper analysis relative to control; format: functional; conditions: 456 h, time 19 day
A549 [11] = assay: Cytotoxicity against human A549 cells assessed as reduction in cell growth pretreated for 1 hr with ROS scavenger, N-acetyl cysteine followed by incubation with compound for 48 hrs by MTT assay; format: functional
A549 [12] = assay: Cytotoxicity against human A549 cells assessed as reduction in cell growth pretreated for 1 hr with NQO1 inhibitor, dicoumarol followed by incubation with compound for 48 hrs by MTT assay; format: functional
HepG2 [13] = assay: Cytotoxicity against human HepG2 cells assessed as reduction in cell growth pretreated for 1 hr with ROS scavenger, N-acetyl cysteine followed by incubation with compound for 48 hrs by MTT assay; format: functional
[14] = Selectivity index, ratio of GI50 for human HepG2 cells pretreated for 1 hr with NQO1 inhibitor, dicoumarol followed by incubation with compound for 48 hrs to GI50 for human HepG2 cells measured after 48 hrs by MTT assay; format: functional

Activity [1] [µmol/min]	Structure (SMILES)	other results
192	COc1ccc(C2CC(=O)NC3=C2C(=O)C(=O)c2ccccc23)cc1F (stereo not drawn)	–
182	O=C1CC(c2ccc([N+](=O)[O-])cc2)C2=C(N1)c1ccccc1C(=O)C2=O (stereo not drawn)	–
333	Cc1cccc(C2CC(=O)NC3=C2C(=O)C(=O)c2ccccc23)c1 (stereo not drawn)	–
275	Cc1ccc(C2CC(=O)NC3=C2C(=O)C(=O)c2ccccc23)cc1 (stereo not drawn)	–
586	COc1cccc(C2CC(=O)NC3=C2C(=O)C(=O)c2ccccc23)c1 (stereo not drawn)	–
448	Cc1ccccc1C1CC(=O)NC2=C1C(=O)C(=O)c1ccccc12 (stereo not drawn)	–
509	O=C1CC(c2cccc(O)c2)C2=C(N1)c1ccccc1C(=O)C2=O (stereo not drawn)	–
160	O=C1CC(c2c(F)cccc2F)C2=C(N1)c1ccccc1C(=O)C2=O (stereo not drawn)	–
557	O=C1CC(c2ccc(Cl)cc2)C2=C(N1)c1ccccc1C(=O)C2=O (stereo not drawn)	–
760	O=C1CC(c2ccc(Cl)cc2Cl)C2=C(N1)c1ccccc1C(=O)C2=O (stereo not drawn)	GI50 (HepG2 [2]): 3.27 µM; GI50 (A549 [3]): 3.13 µM; GI50 (MCF7): 8.81 µM
467	O=C1CC(c2ccccc2Cl)C2=C(N1)c1ccccc1C(=O)C2=O (stereo not drawn)	–
1440	COc1cc(C2CC(=O)NC3=C2C(=O)C(=O)c2ccccc23)ccc1O (stereo not drawn)	GI50 (HepG2 [2]): 2.24 µM; GI50 (A549 [3]): 4.38 µM; GI50 (MCF7): 1.89 µM
392	O=C1CC(c2ccc(F)cc2)C2=C(N1)c1ccccc1C(=O)C2=O (stereo not drawn)	–
1360	O=C1CC(c2ccccc2F)C2=C(N1)c1ccccc1C(=O)C2=O (stereo not drawn)	GI50 (HepG2 [2]): 2.57 µM; GI50 (A549 [3]): 3.89 µM; GI50 (MCF7): 2.3 µM
364	O=C1CC(c2ccccc2)C2=C(N1)c1ccccc1C(=O)C2=O (stereo not drawn)	GI50 (HepG2 [2]): 3.09 µM; GI50 (A549 [3]): 11.7 µM; GI50 (MCF7): 15.3 µM

The next lines start with the compound.

Structure (SMILES)	Activity [1] [µmol/min]	other results
O=C1CC(c2cccc(C(F)(F)F)c2)C2=C(N1)c1ccccc1C(=O)C2=O (stereo not drawn)	1030	GI50 (HepG2 [2]): 4.24 µM; GI50 (A549 [3]): 12.6 µM; GI50 (MCF7): 8.96 µM
CCCC1CC(=O)NC2=C1C(=O)C(=O)c1ccccc12 (stereo not drawn)	486	–
O=C1CC(c2cccs2)C2=C(N1)c1ccccc1C(=O)C2=O (stereo not drawn)	621	–
O=C1CC(c2ccc(F)cc2F)C2=C(N1)c1ccccc1C(=O)C2=O (stereo not drawn)	936	–
O=C1CC(c2ccco2)C2=C(N1)c1ccccc1C(=O)C2=O (stereo not drawn)	613	–
COc1cc(OC)cc(C2CC(=O)NC3=C2C(=O)C(=O)c2ccccc23)c1 (stereo not drawn)	194	–
CC1(C)CCC2=C(O1)c1ccccc1C(=O)C2=O [LAPACHONE]	–	RatioGI50 [4]: 2; RatioGI50 [5]: 2; GI50 at 48 h [6]: 4.54 µM; RatioGI50 [7]: 2; Activity (HepG2 [8]): Tde; GI50 (HepG2 [9]): 6.3 µM; inhibition in vivo at 20 mg/kg (HepG2 [10]): 67.3%; GI50 (A549 [11]): 6.19 µM; GI50 (HepG2 [2]): 2.83 µM; GI50 (A549 [3]): 3.32 µM; GI50 (A549 [12]): 6 µM; GI50 (HepG2 [13]): 6.21 µM; GI50 (MCF7): 4.17 µM; RatioGI50 [14]: 2
COc1ccccc1C1CC(=O)NC2=C1C(=O)C(=O)c1ccccc12 (stereo not drawn)	354	–
O=C1CC(c2cc([N+](=O)[O-])ccc2Cl)C2=C(N1)c1ccccc1C(=O)C2=O (stereo not drawn)	195	–
O=C1CC(C2CCCCC2)C2=C(N1)c1ccccc1C(=O)C2=O (stereo not drawn)	283	–
COc1cc(C2CC(=O)NC3=C2C(=O)C(=O)c2ccccc23)cc(OC)c1OC (stereo not drawn)	684	–
CC(C)C1CC(=O)NC2=C1C(=O)C(=O)c1ccccc12 (stereo not drawn)	786	–
O=C1CC(C2CCCC2)C2=C(N1)c1ccccc1C(=O)C2=O (stereo not drawn)	491	–
COc1ccc(OC)c(C2CC(=O)NC3=C2C(=O)C(=O)c2ccccc23)c1 (stereo not drawn)	180	–
CCCCCC1CC(=O)NC2=C1C(=O)C(=O)c1ccccc12 (stereo not drawn)	175	–
